Experiments:
TGF-beta1 = TGF-beta1 protein in the blood vessel wall, quantitative immunofluoresence; type: in vivo; settings: apoE mice; for TGF-b1 staining: Aspirin 30 mg/kg/day, mean ± SD
Description: (§1) Adult male apoE-deficient mice, back-crossed onto a C57B16 background for at least five generations, were randomised into groups of eight animals at 12 weeks of age, such that each group had similar average body weight. […] The amount of food eaten and the body weight of each mouse was monitored daily for the first week, and once per week thereafter. After 12 weeks of treatment, the mice were sacrificed by CO2 asphyxiation, and heart & lung blocks were excised, embedded in Cryo-M-bed (Bright Instruments, UK) without fixation and snap frozen in liquid nitrogen.
(§2) Sections were then prepared from the aortic root according to the Paigen Strategy (a defined sequence of cutting sections which allow reproducible comparison between animals; see for example Grainger et al. (1995) Nature Med. 1:1067-72 and the references therein). 4 μm crysosections were cut using a motordriven cryotome (Bright Instruments) and collected onto poly-L-lysine coated glass microscope slides, then fixed in ice-cold acetone for 90 secs, allowed to air dry and stored at −20° C. until analysed.

TGF-beta1 protein = assay: total TGF-beta1 protein in conditioned medium, Quantikine ELISA; type: cell-based, human; settings: 24 hrs or 72 hrs; any dose tested (Tamoxifen up to 33 μM, aspirin up to 100 μM)
Experimental: The cells were cultured (37° C.; 5% CO2) in DMEM+20% foetal calf serum (FCS), and subcultured every 5 days at 1:2 dilution, using 0.02% trypsin/EDTA (Gibco).
For the experiments, the cells were subcultured into 12-well cluster plates at 1×10^5 cells/cm^2, and allowed to grow for 24 hrs. […] The cells were then incubated for either 24 hrs or 72 hrs depending on the experiment. All treatment conditions were established in triplicate.
TGF-beta1 protein levels in the medium was measured using the Quantikine ELISA kit (R&D Systems) in accordance with the manufacturer's instructions, except that the medium was pre-activated by addition of an equal volume of 2.7M HCl 10M Urea, and then neutralised by addition of the same volume of 1M HEPES 2M NaOH. […] Note that TGF-beta proteins are well known to interact with many different matrix proteins and cell surface proteins, including proteoglycans, low affinity type III receptors, fibronectin and collagen, and consequently the amount of TGF-beta protein in the medium may not represent the total amount synthesised by the cells, and a negative result in the assay for TGF-beta protein may represent a false negative.

apoE-deficient mice = assay: vascular lipid lesion formation at the aortic root, Oil Red O staining; type: in vivo; settings: for Intimal lipid lesion area / Intimal:media area ratio / Lipid lesion area / Total intimal area: Aspirin 30 mg/kg/day, mean ± SD; for reduction of vascular lipid lesion area: Tamoxifen 1 mg/kg/day p.o, vs control
Description: as §1, §2
The extent of vascular lipid lesion formation was assessed by Oil Red O staining, with a Fast Green counterstain, a standard histological procedure well known in the art. Briefly, five sections (selected according to the Paigen strategy) from each animal were passed through graded alcohol solutions, then stained in Oil Red O for 12 minutes, washed several times and then counterstained by dipping in Fast Green for 5-10 secs, and then dip washed in several changes of clean water. After air drying, an appropriate mountant was applied (simple glycerol-based moutants are most appropriate for this task), followed by a coverslip using acrylic varnish surrounding the coverslip to hold it in place. Slides were then analysed using a simple inverted microscope (no phase contrast; 10× objective; Olympus AX series), fitted with a digital camera to capture images of the entire aortic wall. The images were subsequently processed, blind to the treatment status of the animal, using Openlab image analysis software (Improvision, UK) running on an Apple Macintosh computer. On each image, the user delineated the external elastic lamina, internal elastic lamina and the luminal surface of the vessel wall, and the software reported the total intimal area, the intimal:medial area ratio, the total neutral lipid area and the intimal lipid area. The values from each image were summed (except for intimal:media area ratio, which were averaged), and then the values from each slide were summed (or averaged, as above) to yield a value for each parameter for each animal. […]
Adult male apoE-deficient mice were treated, in groups of 8, with fish oil (Seven Seas, UK), aspirin or both agents simultaneously from 12 weeks of age until 24 weeks of age, exactly as described in Example 2.
Mice were sacrificed and heart & lung blocks prepared and processed exactly as described in Example 2. Sections were prepared in accordance with the Paigen Strategy, as in example 2. The extent of lipid lesion formation was assessed by Oil Red 0 staining with Fast Green counterstain, exactly as in example 2.

tgfb3 mRNA = tgfb3 mRNA level by quantitative PCR in human aortic vascular smooth muscle cells; type: cell-based; settings: 24 hrs
Experimental: (1995) Cardiovasc. Res. 29:848-55). […] The cells were then incubated for either 24 hrs or 72 hrs depending on the experiment. All treatment conditions were established in triplicate. The level of mRNA for tgfb1, tgfb2 and tgfb3 were estimated by quantitative PCR. The media was removed and RNA was carefully prepared using the Ambion RNAqueous4PCR kit (Ambion#1914) in accordance with the manufacturer's instructions. The purity of the RNA and the quantity was assessed spectrophotometrically. […] This analysis results in both a gel-like image as well as electrophoretic data. Indications of RNA degradation are: (a) decreasing ratio of ribosomal bands (b) additional peaks bellow the ribosomal bands (c) Decrease in overall RNA signal (d) shift towards shorter fragments. […] Next, the RNA was converted to cDNA using the ABI High-Capacity cDNA Archive Kit, in accordance with manufacturer's instructions. […] Samples were vortexed to ensure thorough mixing. cDNA was aliquoted into ABI 384 well plates using a multi-channel pipette, 4.5 μl of sample into each well. Samples were assayed in triplicate (that is, nine determinations in total were made for each condition, being three separate assays on each of three replicate culture wells). The assay mix and Universal Master Mix were prepared and aliquoted across the 384 well plates 5.5 μl in each well, using a single channel pipette. […] Universal Master Mix=5 μl; cDNA=4.5 μl. The plates were then heat sealed using Abgene clear seal strong plastic heat seals, and then cycled and scanned using the ABI 9700HT under the following conditions: 95° C. for 10 minutes to activate the AmpliTaq GOLD, then 40 cycles of: 95° C. for 15 sec (Denaturation), 60° C. for 60 […]). […] Quantitative PCR was performed using several primer/probe sets. […] We used both commercially available primer/probe sets (ABI Taqman pre-validated assays), using both available sets in the ABI database for tgfb1 and tgfb2, as well as the single available set for tgfb3. In addition, we used our own manual design probe/primer set for each of tgfb1, tgfb2 and tgfb3. […] In all quantitative PCR experiments, several additional controls were included: firstly, a control for each sample is run with no reverse transcription to ensure the mRNA sample is not contaminated with genomic DNA (although the manual design probe/primer sets were all selected to cross an exon/exon boundary, ensuring no detectable amplicon is produced from genomic DNA templates). […] Failure of either control led to the repeat of the entire experiment.

[1] = 12 to 24 weeks of age, Fish oils 100 mg/kg/day
[2] = 12 weeks in chow, TMX 1 mg/kg/day

CC(=O)Oc1ccccc1C(=O)O [Aspirin, acetylsalicylic acid]
TGF-b1 staining (TGF-beta1; 12 weeks, TMX 1 mg/kg/day): 65 ± 11 AU | level of TGF-beta1 in the blood vessel wall (in words) (TGF-beta1; Example 2): no effect | level of TGF-beta1 in the blood vessel wall (in words) (TGF-beta1; Example 3): no effect | TGF-b1 staining (TGF-beta1; Fish oils 100 mg/kg/day): 65 ± 11 AU | effect on total TGF-beta1 protein levels in conditioned medium (TGF-beta1 protein): no statistically significant effect | Intimal lipid lesion area (apoE-deficient mice; [1]): 31,006 ± 7,176 μm2 | Intimal:media area ratio (apoE-deficient mice; [1]): 62 ± 9% | Lipid lesion area (apoE-deficient mice; [1]): 35,860 ± 8,091 μm2 | Total intimal area (apoE-deficient mice; [1]): 65,209 ± 6.712 μm2 | Intimal lipid lesion area (apoE-deficient mice; [2]): 31,006 ± 7,176 μm^2 | Intimal:media area ratio (apoE-deficient mice; [2]): 62 ± 9% | Lipid lesion area (apoE-deficient mice; [2]): 35,860 ± 8,091 μm^2 | Total intimal area (apoE-deficient mice; [2]): 65,209 ± 6,712 μm^2 | effect on total intimal area and intimal:medial area ratio (apoE-deficient mice; Example 2): did not affect | reduction of vascular lipid lesion area (apoE-deficient mice; aspirin 30 mg/kg/day p.o): 6% | effect on any measure of vascular lipid lesion area or plaque size (apoE-deficient mice; administered separately, fish oil 100 mg/kg/day p.o, aspirin 30 mg/kg/day p.o): no statistically significant effect | Level of mRNA, estimated by qPCR: tgfb3 (tgfb3 mRNA; 10 μM A): 1.09 ± 0.08 fold-change | Level of mRNA, estimated by qPCR: tgfb3 (tgfb3 mRNA; 33 μM A): 1.06 ± 0.13 fold-change | Level of mRNA, estimated by qPCR: tgfb3 (tgfb3 mRNA; 100 μM A): 0.94 ± 0.09 fold-change

CC/C(=C(\c1ccccc1)c1ccc(OCCN(C)C)cc1)c1ccccc1 [Tamoxifen]
TGF-b1 staining (TGF-beta1; 12 weeks, TMX 1 mg/kg/day): 94 ± 9 AU | level of TGF-beta1 in the blood vessel wall (in words) (TGF-beta1; Example 2): increased | effect on total TGF-beta1 protein levels in conditioned medium (TGF-beta1 protein): no statistically significant effect | Intimal lipid lesion area (apoE-deficient mice; [2]): 9,393 ± 2,221 * μm^2 | Lipid lesion area (apoE-deficient mice; [2]): 10,794 ± 2,820 * μm^2 | Total intimal area (apoE-deficient mice; [2]): 64,428 ± 4,294 μm^2 | reduction of vascular lipid lesion area (apoE-deficient mice; aspirin 30 mg/kg/day p.o): 72% | Level of mRNA, estimated by qPCR: tgfb3 (tgfb3 mRNA; 3.3 μM T): 0.92 ± 0.16 fold-change | Level of mRNA, estimated by qPCR: tgfb3 (tgfb3 mRNA; 10 μM T): 1.19 ± 0.21 fold-change | Level of mRNA, estimated by qPCR: tgfb3 (tgfb3 mRNA; 33 μM T): 1.31 ± 0.11 fold-change | doses that significantly increased tgfb3 mRNA (tgfb3 mRNA): ≥ 10 µM
